The values below come from article PMC11345829, “Discovery of Potent Isoquinolinequinone N-Oxides to Overcome Cancer Multidrug Resistance” (Journal of Medicinal Chemistry, 2024).

For one data set, the system named is NCI-ADR/RES. Also on record: method as in PMID 31894828. To be noted: MDR cell line, high P-gp; read-out: growth inhibition (GI50) NCI/ADR-RES; cited from earlier work.
The subject of another data set is MCF12A. Kind of data set: SRB cytotoxicity assay, nontumorigenic breast cells. The class given is cell-based, human. To be noted: 48 h at GI50 concentration obtained on NCI-H460 cells. As for the experimental part:
Selectivity over nontumorigenic cells is a key requirement in cancer therapy so the cytotoxicity of 25 against nontumorigenic lung fibroblast (MRC-5) and breast cell lines (MCF12A) was evaluated with the SRB assay.
Compound 25 was also tested on the nontumorigenic MCF-12A human breast epithelial cell line. […] Following this treatment, the SRB assay was performed as described above.
S3.5 Effect of 25 on the non-tumorigenic MCF12A cell line (Figure S66)
Figure S66 Cytotoxic effect of compound 25 on the non-tumorigenic MCF12A cell line, analysed by the
obtained in the NCI-H460 and NCI-H460/R pair of counterpart cell lines. Results are presented as the
% of cell growth relative to the control cells (treated with the compound vehicle, DMSO at the % used
Data are expressed as mean ± SEM from 3 independent experiments.
(1 picture or pasted object on this page, not shown here)
Background: In SRB staining, fixed cells bind dye roughly in proportion to their protein.

In another data set the test system is DLD1 spheroids. In words: Cell Titer-Glo 3D spheroid viability assay. The class given is cell-based, human. To be noted: 48 h; 25 at 0.61 and 1.22 μM. From the text: (§1) Figure 12 Effect of compound 25 on the viability of spheroids established from two counterpart pairs of sensitive and MDR cell lines, from NSCLC (NCI-H460 and NCI-H460/R) and colorectal cancer (DLD1 and DLD1-TxR), using MicroTissue 3D Petri dishes. […] (B) Effect of compound 25 on the viability of NCI-H460 spheroids analyzed by Cell Titer-Glo 3D viability assay. (C) Effect of compound 25 on the viability of NCI-H460/R spheroids analyzed with the Cell Titer-Glo 3D viability assay. Results are presented as the % of luciferase luminescence relative to the “blank” cells (medium). […] (E) Effect of compound 25 on the viability of DLD1 spheroids analyzed by Cell Titer-Glo 3D viability assay. (F) Effect of compound 25 on the viability of DLD1-TxR spheroids analyzed with the Cell Titer-Glo 3D viability assay. Data are expressed as mean ± SEM from 3 independent experiments. * p ≤ 0.05 and ** p ≤ 0.01, when comparing DMSO vs compound treatment.
(§2) Spheroid formation was conducted in 12-series agarose 3D Petri Dish micromolds (MicroTissues Technology, MicroTissues Inc., Sigma-Aldrich). The agarose micromolds were prepared using 1% agarose in a 0.9% NaCl solution and then placed in 12-well plates and equilibrated with RPMI supplemented with 10% FBS for at least 2 h before cell seeding. Cell suspensions corresponding to 500 cells per spheroid of the NSCLC cell lines (NCI-H460 and NCI-H460/R), and 1000 cells per spheroid of the colorectal cancer cell lines (DLD1 and DLD1-TxR) were seeded in the corresponding micromolds. The choice of cell seeding concentration was based on a previous optimization assay (data not shown), ensuring that at the end of the assay the spheroids would have a size of around 400 μm. A 20 min incubation period was used for cells to settle into the micromolds and additional medium was finally added to the wells. Spheroid formation was monitored with the Leica DMi1 microscope. […] At the end of the treatment, images from at least 8 different spheroids per condition were captured on the Leica Dmi1 microscope, and posteriorly analyzed with the automated open-source software AnaSP.[82] Spheroid parameters, such as equivalent diameter, circularity, and compactness, were calculated.
(§3) Spheroid viability was determined through the luminescence-based Cell Titer-Glo 3D cell viability assay (Promega). Spheroids grown on MicroTissues 3D Petri Dish micromolds were exposed to the treatments, as described in the previous section. Then, the spheroids were transferred into 96-well plates in 50 μL of RPMI medium. […] The plate was then incubated in the dark for 5 min with agitation and allowed to rest for 25 min before luminescence measurement. Luminescence was quantified using the microplate reader Synergy MX coupled with the GEN5 software. […]
A general note: Cellular ATP, detected with luciferase, serves as a proxy for viable cell number.

The subject of a further data set is DLD1-TxR spheroids. In words: Cell Titer-Glo 3D spheroid viability assay. It counts as cell-based, human. To be noted: 48 h; 25 at 0.61 and 1.22 μM.
Text: as §1, §2, §3

The subject of another data set is NCI-H322. Kind of data set: NCI60 five-dose GI50 (NCI data). It counts as cell-based. To be noted: Homo sapiens, SI Table S20. The method, boiled down:
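SRB assay: cells pre-cultured 24 h, then exposed 48 h to compound at 10 nM, 100 nM, 1 μM, 10 μM and 100 μM in RPMI 1640/5% FBS. Growth from absorbance at 515 nm versus time-zero and untreated controls; GI50 = concentration giving 50% reduction in net protein increase.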

For the next data set, the system named is NCI-H460 spheroid. Also noted: method as in PMID 34915071. Particulars: 3D; cited from earlier work.

On to `COC(=O)c1c2c(c(C)[n+]([O-])c1C)C(=O)C=C(NCc1ccccc1)C2=O` [Compound 2], for which, in the data set with NCI-ADR/RES, the GI50 was 535 nM.
For the compound `COC(=O)c1c2c(c[n+]([O-])c1C)C(=O)C=C(NCc1ccccc1)C2=O` [Compound 25], in the data set with MCF12A, the “effect on MCF12A growth” value is reported as “did not cause significant alterations in the growth of these nontumorigenic cells”. Besides, the “viability of DLD1 spheroids” value in the data set on DLD1 spheroids is on record as “significant decrease in the viability of the spheroids”. Further, the “viability of DLD1-TxR spheroids” value with DLD1-TxR spheroids is given as “significant decrease in the viability of the spheroids”. For the same compound, the GI50 in the data set with NCI-H322 was 174 nM.
In the case of `COc1cccc2c1C(=O)c1c(O)c3c(c(O)c1C2=O)C[C@@](O)(C(=O)CO)C[C@@H]3O[C@H]1C[C@H](N)[C@H](O)[C@H](C)O1` [doxorubicin, reference compound], the “concentration reducing NCI-H460 spheroid viability” value with NCI-H460 spheroid is 20 µM.
